Experimental data published in article PMC5370004, “Doxycycline directly targets PAR1 to suppress tumor progression” (Oncotarget, 2017).

Target: T1, Protease-activated receptor 1 (PAR1) (Homo sapiens, UniProt P25116)
T1 construct: gene F2R; PAR1 purified from 293-PAR1 cell lines
T1 sequence (P25116 42-425): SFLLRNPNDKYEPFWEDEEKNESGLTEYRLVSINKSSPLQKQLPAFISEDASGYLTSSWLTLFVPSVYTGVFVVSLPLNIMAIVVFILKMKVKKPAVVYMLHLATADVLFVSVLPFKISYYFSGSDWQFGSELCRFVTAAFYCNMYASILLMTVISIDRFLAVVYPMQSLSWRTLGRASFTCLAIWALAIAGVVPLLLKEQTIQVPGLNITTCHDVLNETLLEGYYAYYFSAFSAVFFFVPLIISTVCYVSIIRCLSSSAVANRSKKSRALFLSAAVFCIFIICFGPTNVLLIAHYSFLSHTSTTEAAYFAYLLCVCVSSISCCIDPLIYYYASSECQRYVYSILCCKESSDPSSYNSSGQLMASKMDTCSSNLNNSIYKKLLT
Assay: SPR (Biacore […], PAR1 immobilized on CM5 chip)
Assay type: binding

Kd: 23 µM
Structure (SMILES): C[C@H]1c2cccc(O)c2C(=O)C2=C(O)[C@]3(O)C(=O)C(C(N)=O)=C(O)[C@@H](N(C)C)[C@@H]3[C@@H](O)[C@@H]21 [Doxycycline]
